Assay: Reversibility/recovery of pores by transepidermal water loss (TEWL)
Type: in vivo, hairless guinea pigs (HGP)
Conditions: following 7-day treatment with FLU in vivo
Description: The reversibility/recovery of the pores following removal of occlusion was studied using transepidermal water loss (TEWL) in a HGP model. Five different sites were chosen on the dorsal region of an animal. […] All sites were marked and cleaned on the day of the treatment. […] The concentration and amount of NTX gel and FLU were consistent with the PK studies. A placebo gel was used for site 3 and site 4. The placebo gel was similar in composition to the NTX gel with 10% PG, 1% benzyl alcohol and 3% HEC as the gelling agent. […] All sites were occluded using a transdermal patch (148) secured in place with Bioclusive™ tape. […] All experiments were conducted at least in triplicate. Recovery of the skin, (i.e., regeneration of the barrier function of the SC) was studied using TEWL. These studies were carried out to look at the effect of the local concentration of FLU on the recovery/healing of the skin following removal of occlusion.

Question: Which “time of recovery/healing of skin upon removal of occlusion” value does the source give for `CC(C)n1c(/C=C/C(O)CC(O)CC(=O)O)c(-c2ccc(F)cc2)c2ccccc21` (stereo not shown) [FLU, fluvastatin sodium] here?
Answer: 45 min

Reference: patent US10022366B2, “Extending and maintaining micropore viability of microneedle treated skin with lipid biosynthesis inhibitors for sustained drug delivery” (University of Maryland, Baltimore, priority 2013, dated 2018)
